Assay results published in ChEMBL document CHEMBL1152443, “Three adducts of butenolide and apigenin glycoside from the leaves of Machilus japonica” (J Nat Prod, 2009).
Active and inactive are the calls of the source. The calls are words filed in the database; no cut-off is given here.

Legend:
[1] = test system: Geobacillus stearothermophilus; assay: Inhibition of Bacillus stearothermophilus alpha-glucosidase type IV at 100ug/mL
[2] = test system: Geobacillus stearothermophilus; assay: Inhibition of Bacillus stearothermophilus alpha-glucosidase type IV at 10ug/mL
[3] = Inhibition of Bacillus stearothermophilus alpha-glucosidase type IV; set-up: species or system Geobacillus stearothermophilus
[4] = test system: PC-3; assay: Cytotoxicity against human PC3 cells; type: functional, cell-based

Row | Compound | inhibition [1] [%] | Activity [2] | IC50 [3] [nM] | IC50 [4] [µg/mL]
1 | CCCCCCCCCC[C@@H]1c2c(cc(O)c3c(=O)cc(-c4ccc(O[C@@H]5O[C@H](CO)[C@@H](O)[C@H](O)[C@H]5O)cc4)oc23)OO[C@@]12C(=O)O[C@H](C)C2=O | 64.7 | inactive |  | 
2 | O=c1cc(-c2ccc(O[C@@H]3O[C@H](CO)[C@@H](O)[C@H](O)[C@H]3O)cc2)oc2cc(O)cc(O)c12 | 18.7 | inactive |  | 
3 | C[C@H]1O[C@H](O[C@H]2[C@H](O)[C@@H](O)[C@@H](O[C@H]3[C@H](O)[C@@H](O)C(O)O[C@@H]3CO)O[C@@H]2CO)[C@H](O)[C@@H](O)[C@@H]1N[C@H]1C=C(CO)[C@@H](O)[C@H](O)[C@H]1O (stereo partly drawn) [ACARBOSE] |  |  | 33 | 
4 | CCCCCCCCCC[C@@H]1c2c(c([C@@H]3O[C@H](CO)[C@@H](O)[C@H](O)[C@H]3O[C@@H]3O[C@@H](C)[C@H](O)[C@@H](O)[C@H]3O)c(O)c3c(=O)cc(-c4ccc(O)cc4)oc23)OO[C@@]12C(=O)O[C@H](C)C2=O [APIGENOSYLIDE A] |  |  |  | > 30
5 | CCCCCCCC[C@@H]1c2c(c([C@@H]3O[C@H](CO)[C@@H](O)[C@H](O)[C@H]3O[C@@H]3O[C@@H](C)[C@H](O)[C@@H](O)[C@H]3O)c(O)c3c(=O)cc(-c4ccc(O)cc4)oc23)OO[C@@]12C(=O)O[C@H](C)C2=O | 93.7 | inactive |  | 
